Measurements: publication PMC10952572, “Improved PIEZO1 agonism through 4‐benzoic acid modification of Yoda1” (British Journal of Pharmacology, 2023)

Tests used:
mPIEZO2 = biological target: T1, mPIEZO2 (Mus musculus, UniProt Q8CD54); test: Intracellular Ca2+ measurement in HEK 293 cells overexpressing mPIEZO2; format: cell-based; conditions: 10 μM, versus non-transfected cells
T1 construct: host or cells: HEK 293, transient
Protocol: mPIEZO2 pCMV‐Sport6 was a gift from Ardem Patapoutian (Coste et al., [2015]), obtained via Addgene (Addgene plasmid #81073; http://n2t.net/addgene:81073; RRID:Addgene_81073). It was sequenced for validation. Transient transfection of the plasmid was achieved using Lipofectamine 3000 in HEK 293 cells, 48 h prior to measurements being made.
HEK 293‐TREx cells and their stably transfected derivatives or transiently transfected HEK 293 or HeLa cells were seeded at a density of 7.5 × 10^4 cells per well into poly‐D‐lysine‐coated 96‐well plates. The plates were either commercially pre‐coated with poly‐D‐lysine (Greiner Bio‐One #655946) or (Greiner Bio‐One #655090) were coated in‐house with 35 μl of a 10 μg·ml^−1 poly‐D‐lysine (Bio‐Techne, Cultrex # 3439‐100‐01) in sterile deionised water per well for at least 24 h and rinsed three times with 100 μl per well sterile D‐PBS before addition of cells. HUVECs were seeded into tissue culture‐treated 96‐well plates (Greiner Bio‐One #655090) at a density of either 2.5 × 10^4 cells 24 h before experimentation or 1.25 × 10^4 cells 48 h before experimentation. […] Measurements were made at room temperature on a 96‐well fluorescence plate reader (FlexStation 3, Molecular Devices, Sunnyvale, CA, USA) controlled by SoftMax Pro software v7.0.3. […]

[1] = Plasma protein binding by rapid equilibrium dialysis; format: in vitro ADME; conditions: RED
Protocol: Mouse plasma protein binding was measured by rapid equilibrium dialysis (RED) performed by Malvern Panalytical (UK). Briefly, mouse plasma was warmed to 37°C for 10 min, and test compound stock solution was added to achieve a 5 μM solution; 500 μl of dialysis buffer was added to one side of the chamber of the device insert (Piercenet, Dialysis membrane MWCO 8000) housed within a heated Teflon block, and the incubation was initiated by the addition of 300 μl of the test compound protein solution to the opposite chamber. Equilibrium was reached by shaking the device on an orbital mixer at 37°C for 4 h; 50 μl aliquots from the buffer and the plasma chambers were transferred into separate wells of a deep‐well plate; 50 μl of plasma was added to the buffer samples, and 50 μl of buffer was added to the plasma samples; 300 μl of ice‐cold acetonitrile containing internal standard was added to precipitate the protein. Samples were then centrifuged (2700 × g at 4°C for 20 min) to pellet the protein, and the supernatant was analysed by LC–MS/MS to quantify the % input compound unbound to plasma protein with reference to a standard curve.

hPIEZO1 = biological target: T2, hPIEZO1 (Homo sapiens, UniProt Q92508); test: Pre-treatment with analogue before Yoda1 stimulus, Ca2+ assay in hPIEZO1-TREx cells; format: cell-based; conditions: hPIEZO1-TREx, 10 μM compound 30 min pretreatment before 2 μM Yoda1
T2 construct: expressed in transfected cells
T2 sequence (Q92508 whole entry): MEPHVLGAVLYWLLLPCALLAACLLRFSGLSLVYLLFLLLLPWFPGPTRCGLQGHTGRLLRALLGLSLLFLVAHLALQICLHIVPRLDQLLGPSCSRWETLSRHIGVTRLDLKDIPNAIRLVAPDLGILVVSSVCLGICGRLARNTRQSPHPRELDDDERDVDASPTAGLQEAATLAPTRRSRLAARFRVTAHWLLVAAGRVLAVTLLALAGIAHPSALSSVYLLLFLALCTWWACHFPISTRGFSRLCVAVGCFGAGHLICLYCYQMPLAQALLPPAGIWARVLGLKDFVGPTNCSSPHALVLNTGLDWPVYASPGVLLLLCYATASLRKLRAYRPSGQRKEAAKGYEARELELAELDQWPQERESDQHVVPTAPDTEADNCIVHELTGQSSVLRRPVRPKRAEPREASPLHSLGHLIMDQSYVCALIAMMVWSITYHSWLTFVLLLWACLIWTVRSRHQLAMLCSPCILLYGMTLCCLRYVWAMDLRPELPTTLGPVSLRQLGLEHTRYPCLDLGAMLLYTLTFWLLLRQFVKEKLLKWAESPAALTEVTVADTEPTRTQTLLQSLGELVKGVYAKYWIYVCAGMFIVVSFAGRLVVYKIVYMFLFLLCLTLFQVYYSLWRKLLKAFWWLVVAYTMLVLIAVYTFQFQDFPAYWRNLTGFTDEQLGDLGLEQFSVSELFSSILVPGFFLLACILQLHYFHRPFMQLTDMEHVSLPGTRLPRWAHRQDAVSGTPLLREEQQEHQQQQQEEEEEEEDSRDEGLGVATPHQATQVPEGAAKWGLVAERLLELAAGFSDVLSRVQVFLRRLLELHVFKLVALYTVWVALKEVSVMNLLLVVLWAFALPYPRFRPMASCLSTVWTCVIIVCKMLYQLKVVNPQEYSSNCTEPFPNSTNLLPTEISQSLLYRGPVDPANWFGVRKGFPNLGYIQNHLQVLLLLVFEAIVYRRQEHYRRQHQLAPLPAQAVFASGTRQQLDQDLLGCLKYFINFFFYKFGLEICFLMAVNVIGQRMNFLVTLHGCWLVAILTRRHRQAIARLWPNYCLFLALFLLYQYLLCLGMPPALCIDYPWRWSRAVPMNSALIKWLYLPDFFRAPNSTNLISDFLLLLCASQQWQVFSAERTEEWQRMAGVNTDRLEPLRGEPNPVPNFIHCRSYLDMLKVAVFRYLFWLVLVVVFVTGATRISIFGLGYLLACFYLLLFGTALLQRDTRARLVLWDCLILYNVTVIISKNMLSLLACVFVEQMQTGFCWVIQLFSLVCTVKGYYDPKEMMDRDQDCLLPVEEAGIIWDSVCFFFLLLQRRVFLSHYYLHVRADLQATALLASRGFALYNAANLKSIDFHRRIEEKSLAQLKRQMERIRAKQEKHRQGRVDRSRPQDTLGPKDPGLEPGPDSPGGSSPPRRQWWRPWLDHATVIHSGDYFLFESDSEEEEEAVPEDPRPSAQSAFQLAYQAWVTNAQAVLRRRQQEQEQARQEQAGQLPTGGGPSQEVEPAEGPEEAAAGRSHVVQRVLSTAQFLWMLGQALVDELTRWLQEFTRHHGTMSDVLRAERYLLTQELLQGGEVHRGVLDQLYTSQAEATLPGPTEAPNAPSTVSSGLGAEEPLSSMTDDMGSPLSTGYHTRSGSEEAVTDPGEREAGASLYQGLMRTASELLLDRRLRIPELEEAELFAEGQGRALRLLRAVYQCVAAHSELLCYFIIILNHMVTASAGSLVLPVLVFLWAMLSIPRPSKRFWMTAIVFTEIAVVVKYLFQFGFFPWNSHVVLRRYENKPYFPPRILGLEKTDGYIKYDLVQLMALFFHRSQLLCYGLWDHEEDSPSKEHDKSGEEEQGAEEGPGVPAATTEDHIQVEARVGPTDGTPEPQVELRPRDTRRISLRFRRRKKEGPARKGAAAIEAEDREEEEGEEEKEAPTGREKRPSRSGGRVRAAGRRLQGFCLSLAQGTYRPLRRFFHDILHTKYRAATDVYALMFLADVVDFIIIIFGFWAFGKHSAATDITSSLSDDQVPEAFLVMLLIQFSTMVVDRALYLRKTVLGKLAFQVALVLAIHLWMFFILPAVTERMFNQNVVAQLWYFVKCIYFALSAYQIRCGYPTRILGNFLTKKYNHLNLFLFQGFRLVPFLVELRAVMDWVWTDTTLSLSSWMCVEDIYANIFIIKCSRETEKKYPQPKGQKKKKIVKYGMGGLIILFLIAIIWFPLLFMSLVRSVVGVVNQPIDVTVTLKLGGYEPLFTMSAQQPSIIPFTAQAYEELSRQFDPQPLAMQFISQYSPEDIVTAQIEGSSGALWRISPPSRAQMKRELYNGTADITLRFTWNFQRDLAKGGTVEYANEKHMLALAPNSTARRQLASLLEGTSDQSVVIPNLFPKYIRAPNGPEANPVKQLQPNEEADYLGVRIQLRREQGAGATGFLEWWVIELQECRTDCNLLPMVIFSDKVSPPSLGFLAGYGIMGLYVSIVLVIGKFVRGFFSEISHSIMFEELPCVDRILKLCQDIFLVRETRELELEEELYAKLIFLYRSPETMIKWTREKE
Protocol: HEK 293‐TREx cells and their stably transfected derivatives or transiently transfected HEK 293 or HeLa cells were seeded at a density of 7.5 × 10^4 cells per well into poly‐D‐lysine‐coated 96‐well plates. The plates were either commercially pre‐coated with poly‐D‐lysine (Greiner Bio‐One #655946) or (Greiner Bio‐One #655090) were coated in‐house with 35 μl of a 10 μg·ml^−1 poly‐D‐lysine (Bio‐Techne, Cultrex # 3439‐100‐01) in sterile deionised water per well for at least 24 h and rinsed three times with 100 μl per well sterile D‐PBS before addition of cells. HUVECs were seeded into tissue culture‐treated 96‐well plates (Greiner Bio‐One #655090) at a density of either 2.5 × 10^4 cells 24 h before experimentation or 1.25 × 10^4 cells 48 h before experimentation. Cells were incubated with 2 μM Fura‐2‐AM (Molecular Probes™) in the presence of 0.01% (wt./vol.) pluronic F127 (Sigma‐Aldrich #P2443) in standard bath solution (SBS) for 1 h at 37°C. Cells were washed with SBS for 30 min at room temperature. Alternatively, if inhibitors were being tested, these were added at this time, immediately following a wash in SBS. (−)‐Englerin A (Akbulut et al., [2015]) was used in SBS containing 0.01% pluronic acid as a dispersing agent to minimise aggregation of compound. Unless otherwise stated, the final concentration of DMSO was 0.2% (vol./vol). Working 2000× stock solutions of test compounds were freshly made in DMSO and diluted 1000‐fold in SBS during the 30 min SBS wash/inhibitor pre‐incubation period to obtain 2× solutions for injection. When testing the highest concentration of Yoda1, KC159 and KC289 (30 μM), the final DMSO concentration was 0.6% (vol./vol.). Measurements were made at room temperature on a 96‐well fluorescence plate reader (FlexStation 3, Molecular Devices, Sunnyvale, CA, USA) controlled by SoftMax Pro software v7.0.3. Recipient wells containing 80 μl SBS/0.2% (vol./vol.) DMSO vehicle or inhibitor compound received 80 μl 2× compound at an injection rate of 1 μl·s^−1, and the pipette introduced liquids from a height setting of 70 μl. No trituration was performed. For recordings using Fura‐2, the change in intracellular Ca was indicated as the ratio of Fura‐2 emission (510 nm) intensities at 340 and 380 nm excitation. Photomultipliers were set to medium sensitivity. SBS contained 130 mM NaCl, 5 mM KCl, 8 mM D‐glucose, 10 mM HEPES, 1.2 mM MgCl2 and 1.5 mM CaCl2, and the pH was adjusted to 7.4 with NaOH. The solution was filtered through a 0.2 μm bottle‐top filter prior to use and handled aseptically thereafter.
In view of the effect of Dooku1 described above, we tested if there are inhibitory actions of the new Yoda1 analogues by pre‐treating cells at 10 μM for 30 min prior to adding 2 μM Yoda1 (Figures 9 and S9, SI 1). All except KC157 and KC161 inhibited the action of Yoda1 on hPIEZO1 channels (Figures 9a and S9, SI 1). […] KC159 and KC289 were agonists, and so they may inhibit the effect of Yoda1 simply by pre‐activating the channels. KC158, KC161 and KC162 are also agonists of mPIEZO1 channels (Figure 3). […] Only the 2‐benzoic acid analogue (KC157) lacks agonist or antagonist properties.

| Compound | Ca2+ elevations in cells overexpressing mPIEZO2 (mPIEZO2) | fraction unbound at 4 h, 5 μM ([1]; mouse, plasma, read-out: Fraction bound to plasma proteins (converted)) | 2 μM Yoda1-evoked peak ΔCa2+i (ΔF340/380), median fold difference compared to DMSO pretreatment (hPIEZO1) [fold] | Fraction bound to plasma proteins ([1]; mouse plasma, 5 μM) [%] |
| --- | --- | --- | --- | --- |
| O=C(O)c1ccc(-c2nnc(SCc3c(Cl)cccc3Cl)s2)cc1 [KC159] | not different from background signals in non‐transfected cells | 0.006 | −1.7 |  |
| O=C([O-])c1ccc(-c2nnc(SCc3c(Cl)cccc3Cl)s2)cc1.[K+] [KC289] | not different from background signals in non‐transfected cells |  | −2.5 | 99.35 |
